Measurements reported in patent US6358883B1, “Pesticidal and parasiticidal use of 1-aryl-1-(substituted thio, sulfinyl and sulfonyl)-2-nitroethane compounds” (American Cyanamid Company, priority 1998, dated 2002).

Columns and labels:
Type in all cases: in vivo
[1] = test system: Spodoptera eridania, 2nd instar larvae, southern armyworm (SAW); assay: Southern armyworm (SAW) leaf dip test; parameters: key: 0 = no effect; 1 = 10-25% kill; 2 = 26-35% kill; 3 = 36-45% kill; 4 = 46-55% kill; 5 = 56-65% kill; 6 = 66-75% kill; 7 = 76-85% kill; 8 = 86-99% kill; 9 = 100% kill
Procedure, shortened: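 Compound is dissolved at 10,000 ppm in 35% acetone/water, then diluted with water. Lima bean leaves are dipped for 3 seconds, dried and placed with ten 2nd instar larvae on damp filter paper. Mortality, reduced feeding and molting interference are scored at 5 days.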

[2] = test system: M. incognita (Root Knot Nematode) larvae; assay: Evaluation of test compounds against M. incognita larvae in microtiter plate wells (movement score); conditions: larvae scored for movement after 20-24 hours; further: key: A score of '9' indicates inactive worms with a straight, sticklike morphology; A score of '8' indicates inactive worms with a limp, curled or curved morphology; A score of '7' indicates dead/paralyzed worms after 72 hours
Procedure, shortened: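 Newly emerged M. incognita larvae in S Medium (buffered salt solution), 50-65 worms per well, exposed to test compounds in sealed microtiter wells. Movement scored after 20-24 h incubation; wells with obviously dead/paralyzed larvae scored positive. A score of "7" denotes dead/paralyzed worms after […].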

[3] = test system: Diabrotica virgifera virgifera Leconte, 2nd instar western corn rootworm (WCR); assay: Western corn rootworm (WCR) soil test; parameters: key: 0 = no effect; 1 = 10-25% kill; 2 = 26-35% kill; 3 = 36-45% kill; 4 = 46-55% kill; 5 = 56-65% kill; 6 = 66-75% kill; 7 = 76-85% kill; 8 = 86-99% kill; 9 = 100% kill
Procedure, shortened: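 Compound in 35% acetone/water applied to talc at 1.25 mg active ingredient per jar (about 50 kg/ha), solvent evaporated, then mixed with millet seed and moist soil. Ten 2nd-instar larvae per jar; mortality counted after 5 days, missing larvae scored dead.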

[4] = test system: Diabrotica undecimpunctata howardi, eggs-southern corn rootworm (SCR-Eggs); assay: Southern corn rootworm eggs (SCR-Eggs) treated diet test; parameters: key: 0 = no effect; 1 = 10-25% kill; 2 = 26-35% kill; 3 = 36-45% kill; 4 = 46-55% kill; 5 = 56-65% kill; 6 = 66-75% kill; 7 = 76-85% kill; 8 = 86-99% kill; 9 = 100% kill; conditions: mortality after 7 days
Protocol: (§1) Test solutions are prepared by dissolving the test compound in a 35% acetone in water mixture to give a concentration of 10,000 ppm. Subsequent dilutions are made with water as needed. Spodoptera eridania, Eggs-southern Armyworm and Diabrotica undecimpunctata howardi, Eggs-southern Corn Rootworm (SAW-Eggs) and (SCR-Eggs) Wells containing artificial diet are treated with the test solutions and dried. The appropriate insect eggs are then placed in the wells. The wells are covered with vented, adhesive, clear plastic covers. After 7 days, mortality counts are made. [table]

[5] = test system: Spodoptera eridania, eggs-southern armyworm (SAW-Eggs); assay: Southern armyworm eggs (SAW-Eggs) treated diet test; parameters: key: 0 = no effect; 1 = 10-25% kill; 2 = 26-35% kill; 3 = 36-45% kill; 4 = 46-55% kill; 5 = 56-65% kill; 6 = 66-75% kill; 7 = 76-85% kill; 8 = 86-99% kill; 9 = 100% kill; conditions: mortality after 7 days
Protocol: as §1

[6] = test system: Tetranychus urticae (OP-resistant strain), 2-spotted spider mite (TSM); assay: 2-spotted spider mite (TSM) plant dip test; parameters: key: 0 = no effect; 1 = 10-25% kill; 2 = 26-35% kill; 3 = 36-45% kill; 4 = 46-55% kill; 5 = 56-65% kill; 6 = 66-75% kill; 7 = 76-85% kill; 8 = 86-99% kill; 9 = 100% kill; conditions: mortality after 2 days
Procedure, shortened: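 OP-resistant mites (~100 per leaf) were transferred onto Sieva lima bean primary leaves about 2 h before treatment. Infested plants were dipped for 3 s in compound from a 10,000 ppm stock in 35% acetone/water, diluted with water. Mortality was counted after 2 days.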

[7] = test system: Aphis gossypii, cotton aphid (CA); assay: Cotton aphid (CA) cotyledon dip test; parameters: key: 0 = no effect; 1 = 10-25% kill; 2 = 26-35% kill; 3 = 36-45% kill; 4 = 46-55% kill; 5 = 56-65% kill; 6 = 66-75% kill; 7 = 76-85% kill; 8 = 86-99% kill; 9 = 100% kill; conditions: mortality after 5 days
Procedure, shortened: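 Cotyledon-stage cotton plants infested overnight via a heavily infested leaf, then dipped in test solution (compound in 35% acetone/water, diluted with water) and dried. Mortality counted after 5 days.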

[8] = test system: C. elegans (Bristol strain); assay: Evaluation of test compounds against C. elegans (motility, 96-well plate); parameters: key: 9=complete kill in 4 hours; 8=complete kill in 24 hours; 7=markedly reduced motility in approximately 95% of worms in 24 hours; 0=normal motility, same as controls; conditions: motility at 4 and 24 hours
Procedure, shortened: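 Bristol-strain C. elegans in Na buffer added to wells containing dried compound (applied in 80% acetone) and incubated at 20 °C. Motility of adults and larvae scored subjectively but semi-quantitatively under a dissecting microscope at 4 and 24 h after immersion, plates tapped before reading.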

Compound | SAW (300 ppm) rating [1] | M. incognita (150 ppm) score [2] | WCR (50 ppm) rating [3] | SCR Eggs (1000 ppm) rating [4] | SAW Eggs (300 ppm) rating [5] | TSM (300 ppm) rating [6] | CA (300 ppm) rating [7] | Rating Against C. elegans (150 ppm) [8]
CCCOC(=O)CSC(C[N+](=O)[O-])c1ccco1 (centres unmarked) [Example 199] | 0 | 9 | 8 (8 = 86-99% kill) | 0 | 9 (9 = 100% kill) | 0 | 0 | 
O=C(O)CSC(C[N+](=O)[O-])c1cccnc1 (centres unmarked) [Example 179] | 0 | 9 | 0 | 0 | 0 | 0 | 0 | 
CCCCOC(=O)CSC(C[N+](=O)[O-])c1cc(Br)cs1 (centres unmarked) [Example 194] | 0 |  | 0 | 0 | 0 | 0 | 0 | 
O=C(CSC(C[N+](=O)[O-])c1cccs1)OCc1ccccc1 (centres unmarked) [Example 185] | 0 | 9 | 0 | 0 | 0 | 0 | 0 | 
COC(=O)CSC(C[N+](=O)[O-])c1cc(Br)cs1 (centres unmarked) [Example 191] | 0 |  | 0 | 0 | 0 | 0 | 0 | 
CCOC(=O)CSC(C[N+](=O)[O-])c1cc(Br)cs1 (centres unmarked) [Example 192] | 0 |  | 0 | 0 | 0 | 0 | 0 | 
CCCSC(C[N+](=O)[O-])c1ccco1 (centres unmarked) [Example 201] | 0 | 0 | 7 (7 = 76-85% kill) | 0 | 0 | 0 | 0 | 
COC(=O)CSC(C[N+](=O)[O-])c1cccc([N+](=O)[O-])c1 (centres unmarked) [Example 138] | 0 | 0 | 0 | 0 | 0 | 0 | 0 | 
O=C(O)CSC(C[N+](=O)[O-])c1cc(Br)cs1 (centres unmarked) [Example 190] | 0 |  | 0 | 0 | 0 | 0 | 0 | 
CCOC(=O)CSC(C[N+](=O)[O-])c1ccco1 (centres unmarked) [Example 198] | 0 | 9 | 7 (7 = 76-85% kill) | 0 | 9 (9 = 100% kill) | 0 | 0 | 
CCOC(=O)CSC(C[N+](=O)[O-])c1cccs1 (centres unmarked) [Example 183] | 0 | 9 | 0 | 0 | 0 | 0 | 0 | 
CCCCOC(=O)CSC(C[N+](=O)[O-])c1cccs1 (centres unmarked) [Example 184] | 0 | 9 | 0 | 0 | 9 (9 = 100% kill) | 0 | 0 | 
O=[N+]([O-])CC(SCc1ccccc1)c1ccc(F)cc1 (centres unmarked) [Example 13] | 0 | 0 | 0 |  | 0 | 0 | 7 (7 = 76-85% kill) | 8
CC(C)CCCCCOC(=O)CSC(C[N+](=O)[O-])c1ccc(F)cc1 (centres unmarked) [Example 11] | 0 | 0 | 0 |  | 0 | 0 | 0 | 0
CCCOC(=O)CSC(C[N+](=O)[O-])c1cc(Br)cs1 (centres unmarked) [Example 193] | 0 |  | 0 | 0 | 0 | 0 | 0 | 
CC(C)CCCCCOC(=O)CSC(C[N+](=O)[O-])c1ccccc1 (centres unmarked) [Example 8] | 0 | 0 | 0 |  | 0 | 0 | 0 | 0
C=CCSC(C[N+](=O)[O-])c1cccs1 (centres unmarked) [Example 187] | 0 | 9 | 0 | 0 | 0 | 0 | 0 | 
CCCCOC(=O)CSC(C[N+](=O)[O-])c1ccco1 (centres unmarked) [Example 200] | 0 | 9 | 4 (4 = 46-55% kill) | 0 | 9 (9 = 100% kill) | 0 | 0 | 
COC(=O)CSC(C[N+](=O)[O-])c1cccs1 (centres unmarked) [Example 182] | 0 | 9 | 0 | 0 | 0 | 0 | 0 | 
CCOC(=O)CSC(C[N+](=O)[O-])c1ccc(F)cc1 (centres unmarked) [Example 16] | 0 | 9 | 0 |  | 0 | 0 | 0 | 8
O=[N+]([O-])CC(SCc1ccccc1)c1ccccc1 (centres unmarked) [Example 10] | 0 | 0 | 0 |  | 0 | 0 | 0 | 0
COC(=O)CSC(C[N+](=O)[O-])c1ccc(F)cc1 (centres unmarked) [Example 15] | 0 | 9 | 3 (3 = 36-45% kill) |  | 0 | 0 | 0 | 9
O=[N+]([O-])CC(SCc1ccccc1)c1cc(Br)cs1 (centres unmarked) [Example 195] | 0 |  | 0 | 0 | 0 | 0 | 0 | 
